Reference: patent publication US10792257B2, “Pharmaceutical compositions comprising safinamide” (Zambon S.P.A., priority 2016, dated 2020)

Assays:
[1] = Organoleptic characteristics of the active ingredient as noted by the inventors; conditions: for irritation of the mucosae: unmasked active ingredient, oropharynx
[2] = Solubility in saliva; assay type: physicochemical

Molecule: (2 S)-2-[[4-[(3-fluorophenypmethoxy]phenyl]methyl amino]propanamide [safinamide]
- irritation of the mucosae [1]: pronounced tendency to irritate the mucosae of the first section of the oropharynx

Molecule: C[C@H](NCc1ccc(OCc2cccc(F)c2)cc1)C(N)=O [safinamide methanesulfonate, Safinamide methanesulfonate]
- irritant effect in the oral cavity ([1]; attempts to modify the pH of the pharmaceutical preparation): did not lead to a reduction of the irritant effect
- irritation of the mucosae [1]: pronounced tendency to irritate the mucosae of the first section of the oropharynx
- solubility in saliva [2]: fairly soluble in saliva
